Earlier results, collected in US20050266073A1, “Fast disintegrating granules containing bromhexin/bromhexinhydrochloride, process for their preparation, and their use in veterinary medicine” (Boehringer Ingelheim Vetmedica GmbH, priority 2004, published 2005).

Assays:
[1] = not given; remark: listed apart in the source

Row | SMILES | solubility in ethanol, methanol and methylene chloride (in words) | solubility in water [1] | solubility in water (in words) [1]
1 | CN(Cc1cc(Br)cc(Br)c1N)C1CCCCC1.Cl [Bromhexinhydrochloride] | dissolves with difficulty | – | –
2 | CN(Cc1cc(Br)cc(Br)c1N)C1CCCCC1 [Bromhexin, N-cyclohexyl-N-methyl-(2-amino-3,5-dibrombenzyl)amine] | – | 1 g/250 ml | soluble with difficulty
